Laboratory results as given in the NIST ThermoML archive (doi:10.1016/j.jct.2015.02.010).
“And” between values parts separate entries of the source, which are not always exact repeats. Identical values can stand only once.

What was measured:
[1] = Crystal; for vapor or sublimation pressure: Calculated from knudsen effusion weight loss; for Normal melting temperature: DTA
[2] = Molar enthalpy of transition or fusion; conditions: Crystal; DSC

CC(=O)Nc1ccccc1C(=O)O [2-acetamidobenzoic acid]
[1]
Conditions	vapor or sublimation pressure
367.17 K	8.3e-05 kPa
369.28 K	0.000109 kPa and 0.000106 kPa and 0.000108 kPa
371.16 K	0.000128 kPa
373.16 K	0.00016 kPa and 0.000163 kPa
375.26 K	0.000207 kPa and 0.00021 kPa
377.16 K	0.000248 kPa and 0.000255 kPa and 0.000258 kPa
379.19 K	0.000305 kPa and 0.000303 kPa and 0.000308 kPa
381.29 K	0.000385 kPa and 0.000373 kPa and 0.000378 kPa
383.16 K	0.000438 kPa
385.15 K	0.000577 kPa and 0.000561 kPa and 0.000574 kPa
387.26 K	0.000697 kPa and 0.000711 kPa and 0.00078 kPa
389.15 K	0.000829 kPa and 0.00084 kPa

Conditions	Molar enthalpy of transition or fusion [kcal/mol]	Normal melting temperature [°C]
[1]	–	181.96
[2]	7.01	–

CC(=O)Oc1cccc(C(=O)O)c1 [3-acetoxybenzoic acid]
[1]
Conditions	vapor or sublimation pressure
344.16 K	0.000129 kPa and 0.000124 kPa and 0.000123 kPa
346.15 K	0.000158 kPa and 0.000163 kPa and 0.000157 kPa
348.2 K	0.000198 kPa and 0.000199 kPa and 0.000205 kPa
350.13 K	0.000251 kPa and 0.00025 kPa and 0.000257 kPa
353.17 K	0.000355 kPa and 0.000357 kPa and 0.00037 kPa
356.21 K	0.000497 kPa and 0.000499 kPa and 0.00051 kPa
358.16 K	0.000631 kPa and 0.000652 kPa
360.17 K	0.000813 kPa and 0.00081 kPa
362.16 K	0.000967 kPa and 0.000966 kPa and 0.001004 kPa

Conditions	Molar enthalpy of transition or fusion [kcal/mol]	Normal melting temperature [°C]
[1]	–	131.61
[2]	6.28	–

CC(=O)Nc1cccc(C(=O)O)c1 [3-(acetylamino)benzoic acid]
[1]
Conditions	vapor or sublimation pressure
423.22 K	0.000156 kPa
425.28 K	0.000193 kPa and 0.000189 kPa
427.09 K	0.000223 kPa and 0.000219 kPa
429.23 K	0.000279 kPa and 0.000283 kPa
431.28 K	0.000336 kPa and 0.000341 kPa
433.24 K	0.00041 kPa and 0.000419 kPa
435.1 K	0.000495 kPa and 0.000496 kPa
437.29 K	0.000619 kPa and 0.000621 kPa
439.23 K	0.000751 kPa and 0.000744 kPa
441.1 K	0.000886 kPa and 0.000907 kPa

Conditions	Molar enthalpy of transition or fusion [kcal/mol]	Normal melting temperature [°C]
[1]	–	249.04
[2]	10.1	–

CC(=O)Oc1ccccc1C(=O)O [2-acetoxybenzoic acid]
[1]
Conditions	vapor or sublimation pressure
341.11 K	0.00012 kPa and 0.000119 kPa
343.24 K	0.000147 kPa and 0.000158 kPa
345.28 K	0.000194 kPa and 0.000203 kPa
347.1 K	0.00023 kPa and 0.000238 kPa
349.24 K	0.00029 kPa and 0.000305 kPa
351.27 K	0.000378 kPa and 0.000387 kPa
353.1 K	0.000478 kPa and 0.000471 kPa
355.28 K	0.000599 kPa and 0.000643 kPa
357.27 K	0.000744 kPa and 0.000796 kPa
359.23 K	0.00089 kPa and 0.000966 kPa
361.11 K	0.001165 kPa

Conditions	Molar enthalpy of transition or fusion [kcal/mol]	Normal melting temperature [°C]
[1]	–	134.23
[2]	8.09	–
